Source: patent publication US12391990B2, “Determination of magnesium body concentration” (Vanderbilt University, priority 2019, dated 2025)

Key:
[1] = Magnesium tolerance test (MTT), percent Mg retention from 24-hour urine; format: in vivo, human; conditions: after 12-week Mg supplementation, ongoing trial
Text: In a magnesium tolerance test, a health care professional, such as a doctor, gives a participant a shot of a known amount of magnesium and then later uses the participant's urine to determine how much magnesium the participant's body retained, and how much the body eliminated.
In an exemplary study as described herein, participants who completed the study received a schedule of planned magnesium tolerance tests on two consecutive days. A 24-hour urine sample was collected for determining the basal urinary magnesium excretion prior to the intravenous infusion of magnesium sulfate. Another 24-hour urine sample was obtained starting with the IV infusion.
• 1. […] Percentage magnesium retained is calculated by the formula below (Mg: magnesium) […]
A Mg tolerance test, the most accurate approach to evaluate Mg nutriture, is conducted at the end of trial. […] For the Mg tolerance test, the participant's percent retention is calculated by the following formula: [1−(post infusion Mg excretion-pre infusion Mg excretion)/total Mg infused]×100. […]
MTT was conducted on 78 subjects in PPCCT. […] Urine magnesium level was measured using 7D70 Magnesium Reagent Kit from Abbot Laboratories (Abbott Park, TL). […] The absorbance of the arsenazo-magnesium complex is measured at 572 nm and is proportional to the concentration of magnesium present in the sample.

[2] = test system: 5-hmC levels in rectal tissues; experiment: 5-hmC affinity enrichment sequencing of pre- and post-treatment rectal tissues; format: in vivo, human; conditions: rectal tissue
Description: 5-hmC alterations induced by Mg treatment. As mentioned, due to technological limitations, distinguishing 5-hmC from 5-mC has only recently been possible. Using the technology an evaluation was conducted of 5-hmC in normal rectal mucosa collected at baseline from 7 participants of the PPCCT. 5-hmC-specific affinity pull-down^142 samples were sequenced using the Illumina next-generation sequencing (50 bp single-end). The raw sequencing reads were mapped to the human genome reference (hg19) using Bowtie2^153. 5-hmC peaks (i.e. enriched 5-hmC regions) were then called using the MACS algorithm^154. There are two important findings. 1) There are approximately 13,000-15,000 high quality 5-hmC peaks across the genomes at p<1e-5 calculated by MACS.
Genome-wide 5-hmC was also measured in pre- (i.e. baseline) and post-treatment rectal tissues (i.e. after 3-month Mg supplementation). In this analysis, one individual was included in the treatment arm and the other in the placebo arm. Two-hundred ninety-six (296) and 1271 genes were found with ≥4-fold or ≥3-fold changes in 5-hmC levels from baseline, respectively, in the treatment arm compared to 39 and 176 in the placebo arm (Table 1). Thus, the treatment arm has a much larger number of affected genes than the placebo arm.
Furthermore, the majority of the changes found in 5-hmC caused by Mg treatment are up-modifications, very consistent with findings from in vitro and in vivo studies of vitamin C treatment^86;87.

[3] = 49 days of Mg repletion after 3-month Mg depletion, previous human study, from 0.81 to 0.86, p=0.06; cited from earlier work
[4] = test system: 5-hmC and 5-mC in tissues; conditions: vitamin C supplementation, all three tissues; cited from earlier work
embryonic stem cells = conditions: vitamin C supplementation, cited from earlier work
[5] = treatment arm, one individual, after 3-month Mg supplementation

SMILES	Individuals who still had Mg deficiency (retention ≥50% in Mg tolerance test) [1] [%]	Direction of the majority of changes in 5-hmC ([2]; Mg treatment)	Number of genes with ≥3-fold change in 5-hmC peaks from baseline [2, 5]	Number of genes with ≥4-fold change in 5-hmC peaks from baseline [2, 5]	Increase in serum Mg [3] [%]	5-hmC concentrations in tissues [4]	Number of genes with over 2-fold changes in expression (embryonic stem cells; primarily up-modifications)	Change in 5-hmC (embryonic stem cells)
NCC(=O)[O-].NCC(=O)[O-].[Mg+2] [Mg]	42	up-modifications	1271	296	6			
O=C1O[C@H]([C@@H](O)CO)C(O)=C1O [vitamin C]						significantly elevated	approximately 200	genome-wide increase in 5-hmC
